# Results from patent US12662489B2 (Sitryx Therapeutics Limited, priority 2023, dated 2026).
# How the values were obtained:
# [1] = molecular target: T1, MTHFD2 recombinant human enzyme (Homo sapiens, UniProt P13995); experiment: MTHFD2 inhibition assay (NAD(P)H-Glo luminescence); details: for MTHFD1/MTHFD2 IC50 ratio: selectivity of MTHFD2 inhibition over MTHFD1, band
# T1 sequence (P13995 36-350): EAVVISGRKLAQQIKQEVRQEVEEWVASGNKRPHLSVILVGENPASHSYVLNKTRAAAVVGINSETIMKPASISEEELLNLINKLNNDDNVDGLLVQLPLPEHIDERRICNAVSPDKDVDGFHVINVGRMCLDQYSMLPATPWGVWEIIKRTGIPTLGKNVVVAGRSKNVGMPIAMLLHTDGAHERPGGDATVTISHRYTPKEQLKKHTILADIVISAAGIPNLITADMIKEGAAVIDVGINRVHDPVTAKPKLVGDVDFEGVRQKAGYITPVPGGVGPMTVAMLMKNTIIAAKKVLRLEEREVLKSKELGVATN
# [2] = molecular target: T2, MTHFD1 recombinant human enzyme (Homo sapiens, UniProt P11586); experiment: MTHFD1 inhibition assay (NAD(P)H-Glo luminescence); details: MTHFD1 IC50, recombinant human enzyme 200 nM, NADP, band
# T2 sequence (P11586 2-291 limits assumed): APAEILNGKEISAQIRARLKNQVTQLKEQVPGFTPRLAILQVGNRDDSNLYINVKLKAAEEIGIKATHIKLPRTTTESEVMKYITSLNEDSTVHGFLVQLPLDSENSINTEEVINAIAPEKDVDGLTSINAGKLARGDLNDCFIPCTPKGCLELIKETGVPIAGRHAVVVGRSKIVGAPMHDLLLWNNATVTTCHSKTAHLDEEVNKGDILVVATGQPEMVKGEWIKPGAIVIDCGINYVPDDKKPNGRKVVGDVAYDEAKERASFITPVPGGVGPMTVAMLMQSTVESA
IC50 [1] [nM],MTHFD1/MTHFD2 IC50 ratio [1],IC50 [2] [nM],SMILES
10 to 100,H (>9.0 to 30),100 to 1000,"COC[C@H]1CN(c2cc(Cl)c3c4c(c(=O)oc3c2C)CN(C(=O)c2ccc(C(=O)NS(=O)(=O)N3CC5(CCC5)C3)c(OC)c2)CC4)CCN1C [Example 279, (R)-N-((2-azaspiro[3.3]heptan-2-yl)sulfonyl)-4-(10-chloro-8-(3-(methoxymethyl)-4-methylpiperazin-1-yl)-7-methyl-5-oxo-1,3,4,5-tetrahydro-2H-chromeno[3,4-c]pyridine-3-carbonyl)-2-methoxybenzamide]"
100 to 1000,F (<3),10 to 100,"COC[C@H]1CN(c2ccc3c4c(c(=O)oc3c2C)CN(C(=O)c2ccc(C(=O)NS(=O)(=O)N3CCCC3)c(OC3C[C@@H]5C[C@@H]5C3)c2)CC4)CCN1C (mixture of isomers) [Example 114, 2-(bicyclo[3.1.0]hexan-3-yloxy)-4-(8-((R)-3-(methoxymethyl)-4-methylpiperazin-1-yl)-7-methyl-5-oxo-1,3,4,5-tetrahydro-2H-chromeno[3,4-c]pyridine-3-carbonyl)-N-(pyrrolidin-1-ylsulfonyl)benzamide]"
10 to 100,F (<3),1 to 10,"COC[C@H]1CN(c2ccc3c4c(c(=O)oc3c2Cl)CN(C(=O)c2ccc(C(=O)NS(=O)(=O)N3CCCC3)c(O[C@@H]3C[C@@H]5C[C@@H]5C3)c2F)CC4)CCN1C [Example 62, 2-(((1R,3r,5S)-bicyclo[3.1.0]hexan-3-yl)oxy)-4-(7-chloro-8-((R)-3-(methoxymethyl)-4-methylpiperazin-1-yl)-5-oxo-1,3,4,5-tetrahydro-2H-chromeno[3,4-c]pyridine-3-carbonyl)-3-fluoro-N-(pyrrolidin-1-ylsulfonyl)benzamide]"
10 to 100,H (>9.0 to 30),100 to 1000,"COC[C@H]1CN(c2cc(Cl)c3c4c(c(=O)oc3c2C)CN(C(=O)c2cc(N(C)C)c(C(=O)NS(=O)(=O)N3CCCC5(COC5)C3)cc2F)CC4)CCN1C [Example 272, (R)-N-((2-oxa-6-azaspiro[3.5]nonan-6-yl)sulfonyl)-4-(10-chloro-8-(3-(methoxymethyl)-4-methylpiperazin-1-yl)-7-methyl-5-oxo-1,3,4,5-tetrahydro-2H-chromeno[3,4-c]pyridine-3-carbonyl)-2-(dimethylamino)-5-fluorobenzamide]"
1 to 10,H (>9.0 to 30),10 to 100,"COC[C@H]1CN(c2cc(C)c3c4c(c(=O)oc3c2C)CN(C(=O)c2ccc(C(=O)NS(=O)(=O)C3(C)CC3)c(N(C)C)c2)CC4)CCN1C [Example 79, (R)-2-(dimethylamino)-4-(8-(3-(methoxymethyl)-4-methylpiperazin-1-yl)-7,10-dimethyl-5-oxo-1,3,4,5-tetrahydro-2H-chromeno[3,4-c]pyridine-3-carbonyl)-N-((1-methylcyclopropyl)sulfonyl)benzamide]"
1 to 10,F (<3),1 to 10,"COC[C@H]1CN(c2cc(C)c3c4c(c(=O)oc3c2C)CN(C(=O)c2ccc(C(=O)NS(=O)(=O)N(C)C)c(O[C@H]3C[C@@H]5C[C@@H]5C3)c2F)CC4)CCN1C [Example 67, 2-(((1R,3s,5S)-bicyclo[3.1.0]hexan-3-yl)oxy)-N-(N,N-dimethylsulfamoyl)-3-fluoro-4-(8-((R)-3-(methoxymethyl)-4-methylpiperazin-1-yl)-7,10-dimethyl-5-oxo-1,3,4,5-tetrahydro-2H-chromeno[3,4-c]pyridine-3-carbonyl)benzamide]"
100 to 1000,H (>9.0 to 30),1000 to 5000,"COC[C@H]1CN(c2ccc3c4c(c(=O)oc3c2C)CN(C(=O)c2cc(OC3CCCC3)c(C(=O)NS(=O)(=O)C3(C)CC3)c(C(F)(F)F)c2)CC4)CCN1C [Example 101, (R)-2-(cyclopentyloxy)-4-(8-(3-(methoxymethyl)-4-methylpiperazin-1-yl)-7-methyl-5-oxo-1,3,4,5-tetrahydro-2H-chromeno[3,4-c]pyridine-3-carbonyl)-N-((1-methylcyclopropyl)sulfonyl)-6-(trifluoromethyl)benzamide]"
10 to 100,F (<3),10 to 100,"COC[C@H]1CN(c2cc(C)c3c4c(c(=O)oc3c2C)CN(C(=O)c2ccc(C(=O)NS(=O)(=O)N(C)C)c(OC3C5CC6CC(C5)CC3C6)c2)CC4)CCN1C (stereo partly drawn) [Example 100, 2-((adamantan-2-yl)oxy)-N-(N,N-dimethylsulfamoyl)-4-(8-((R)-3-(methoxymethyl)-4-methylpiperazin-1-yl)-7,10-dimethyl-5-oxo-1,3,4,5-tetrahydro-2H-chromeno[3,4-c]pyridine-3-carbonyl)benzamide]"
10 to 100,F (<3),10 to 100,"COC[C@H]1CN(c2cc(C)c3c4c(c(=O)oc3c2C)CN(C(=O)c2cc(OC3CCCC3)c(C(=O)NS(=O)(=O)N3CCCC3)cc2F)CC4)CCN1C [Example 111, (R)-2-(cyclopentyloxy)-5-fluoro-4-(8-(3-(methoxymethyl)-4-methylpiperazin-1-yl)-7,10-dimethyl-5-oxo-1,3,4,5-tetrahydro-2H-chromeno[3,4-c]pyridine-3-carbonyl)-N-(pyrrolidin-1-ylsulfonyl)benzamide]"

SMILES,IC50 [1] [nM],MTHFD1/MTHFD2 IC50 ratio [1],IC50 [2] [nM]
"COC[C@H]1CN(c2ccc3c4c(c(=O)oc3c2C)CN(C(=O)c2ccc(C(=O)NS(=O)(=O)N3[C@H](C)CC[C@H]3C)c(OC3CCC3)c2F)CC4)CCN1C [Example 177, 2-cyclobutoxy-N-(((2R,5R)-2,5-dimethylpyrrolidin-1-yl)sulfonyl)-3-fluoro-4-(8-((R)-3-(methoxymethyl)-4-methylpiperazin-1-yl)-7-methyl-5-oxo-1,3,4,5-tetrahydro-2H-chromeno[3,4-c]pyridine-3-carbonyl)benzamide]",100 to 1000,F (<3),100 to 1000
"COC[C@H]1CN(c2ccc3c4c(c(=O)oc3c2Cl)CN(C(=O)c2ccc(C(=O)NS(=O)(=O)N3CCCC3)c(OC3CCC3)c2)CC4)CCN1C [Example 14, (R)-4-(7-chloro-8-(3-(methoxymethyl)-4-methylpiperazin-1-yl)-5-oxo-1,3,4,5-tetrahydro-2H-chromeno[3,4-c]pyridine-3-carbonyl)-2-cyclobutoxy-N-(pyrrolidin-1-ylsulfonyl)benzamide]",10 to 100,F (<3),10 to 100
"COC[C@H]1CN(c2cc(C)c3c4c(c(=O)oc3c2C)CN(C(=O)c2cc(OC3CCC3)c(C(=O)NS(=O)(=O)N(C)C)cc2F)CC4)CCN1C [Example 93, (R)-2-cyclobutoxy-N-(N,N-dimethylsulfamoyl)-5-fluoro-4-(8-(3-(methoxymethyl)-4-methylpiperazin-1-yl)-7,10-dimethyl-5-oxo-1,3,4,5-tetrahydro-2H-chromeno[3,4-c]pyridine-3-carbonyl)benzamide]",10 to 100,G (^ 3 to 9.0),10 to 100
